The results in this text go back to patent publication US10428044B2, “3-amino-1,5,6,7-tetrahydro-4H-indol-4-ones” (Bayer Pharma Aktiengesellschaft, priority 2014, dated 2019).

(recombinant) catalytic domain of human Bub1 (amino acids 704-1085), sequence (O43683 704-1085): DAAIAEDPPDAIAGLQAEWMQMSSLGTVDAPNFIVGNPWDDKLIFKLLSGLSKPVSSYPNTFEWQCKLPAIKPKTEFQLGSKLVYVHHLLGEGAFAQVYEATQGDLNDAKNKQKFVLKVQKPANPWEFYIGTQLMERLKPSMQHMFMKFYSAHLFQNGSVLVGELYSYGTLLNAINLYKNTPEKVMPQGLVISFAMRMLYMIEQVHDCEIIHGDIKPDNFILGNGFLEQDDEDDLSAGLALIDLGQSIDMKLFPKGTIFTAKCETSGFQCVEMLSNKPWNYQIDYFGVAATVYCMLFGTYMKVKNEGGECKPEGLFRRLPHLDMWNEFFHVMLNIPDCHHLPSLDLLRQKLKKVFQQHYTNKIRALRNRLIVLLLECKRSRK

This assay has as its target (recombinant) catalytic domain of human Bub1 (amino acids 704-1085) (Homo sapiens (Human), UniProt O43683). Nature of the assay: Bub1 kinase assay (TR-FRET). Format: biochemical. As to conditions: ATP 10 μM final, peptide substrate 1 μM final, 60 min at 22° C., read-out: Biological Assay: Bub1 kinase assay median IC50. The method in brief: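 Readout was TR-FRET between a Eu-labeled antibody complex recognizing phosphoserine and streptavidin-XL665 on the biotinylated peptide, after EDTA stop and 1 h at 22° C. The kinase reaction ran for 60 min at 22° C. Values are means or medians of repeat tests, from 4-parameter fits normalized to enzyme-free and inhibitor-free controls.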
For orientation: Time-resolved FRET reads energy transfer from a long-lived donor to a nearby acceptor.
One may read the IC50 as the concentration that gives 50% inhibition. For `O=C1CCCc2c1c(Nc1ccccc1)c(-c1ccncc1)n2CCCO` [Example 175, 1-(3-hydroxypropyl)-3-(phenylamino)-2-(pyridin-4-yl)-1,5,6,7-tetrahydro-4H-indol-4-one], the concentration for half-maximal inhibition (IC50) turned out to be 0.217 µM.

`CC1(C)CC(=O)c2c([nH]c(-c3ccncc3)c2Nc2ccc(F)c(C(F)(F)F)c2)C1` [Example 129, 3-{[4-fluoro-3-(trifluoromethyl)phenyl]amino}-6,6-dimethyl-2-(pyridin-4-yl)-1,5,6,7-tetrahydro-4H-indol-4-one]: the IC50 amounted to 0.447 µM.

As for `O=C(COCc1ccco1)Nc1cc(-c2[nH]c3c(c2Nc2ccccc2)C(=O)CCC3)ccn1` [Example 352, 2-(furan-2-ylmethoxy)-N-{4-[4-oxo-3-(phenylamino)-4,5,6,7-tetrahydro-1H-indol-2-yl]pyridin-2-yl}acetamide], the IC50 worked out at 0.00668 µM.

As to `COc1ccc(Cn2cc(C(=O)Nc3cc(-c4[nH]c5c(c4Nc4ccccc4)C(=O)CC(C)(C)C5)ccn3)cn2)cc1` [Example 479, N-{4-[6,6-dimethyl-4-oxo-3-(phenylamino)-4,5,6,7-tetrahydro-1H-indol-2-yl]pyridin-2-yl}-1-(4-methoxybenzyl)-1H-pyrazole-4-carboxamide], the IC50 was found to be 0.00509 µM.

As to `CC(C)(C)OC(=O)N1CC(C(=O)Nc2cc(-c3[nH]c4c(c3Nc3ccccc3)C(=O)CCC4)ccn2)C1` [Example 295, tert-butyl 3-({4-[4-oxo-3-(phenylamino)-4,5,6,7-tetrahydro-1H-indol-2-yl]pyridin-2-yl}carbamoyl)azetidine-1-carboxylate], the IC50 amounted to 0.038 µM.

Take `O=C(Nc1cc(-c2[nH]c3c(c2Nc2ccccc2)C(=O)CCC3)ccn1)c1ccc(F)c(F)c1` [Example 451, 3,4-difluoro-N-{4-[4-oxo-3-(phenylamino)-4,5,6,7-tetrahydro-1H-indol-2-yl]pyridin-2-yl}benzamide]: the half-inhibitory concentration (IC50) is 0.00882 µM.

As to `CC1(C)CC(=O)c2c([nH]c(-c3ccncc3)c2Nc2cccc(C3(C)OCCO3)c2)C1` [Example 153, 6,6-dimethyl-3-{[3-(2-methyl-1,3-dioxolan-2-yl)phenyl]amino}-2-(pyridin-4-yl)-1,5,6,7-tetrahydro-4H-indol-4-one], the IC50 came out at 11.5 µM.

On to `O=C(Cc1nccs1)Nc1cc(-c2[nH]c3c(c2Nc2ccccc2)C(=O)CCC3)ccn1` [Example 285, N-{4-[4-oxo-3-(phenylamino)-4,5,6,7-tetrahydro-1H-indol-2-yl]pyridin-2-yl}-2-(1,3-thiazol-2-yl)acetamide], for which the half-inhibitory concentration (IC50) was 0.0308 µM.

Consider `Cc1cc(COCC(=O)Nc2cc(-c3[nH]c4c(c3Nc3ccccc3)C(=O)CCC4)ccn2)no1` [Example 354, 2-[(5-methyl-1,2-oxazol-3-yl)methoxy]-N-{4-[4-oxo-3-(phenylamino)-4,5,6,7-tetrahydro-1H-indol-2-yl]pyridin-2-yl}acetamide], for which the 50% inhibitory concentration (IC50) was 0.00657 µM.

For `Cn1c2c(c(Nc3ccccc3)c1-c1ccncc1)C(=O)CCC2` [Example 169, 1-methyl-3-(phenylamino)-2-(pyridin-4-yl)-1,5,6,7-tetrahydro-4H-indol-4-one], the 50% inhibitory concentration (IC50) was found to be 0.125 µM.

With `CCCC(=O)Nc1cccc(Nc2c(-c3ccncc3)[nH]c3c2C(=O)CC(C)(C)C3)c1` [Example 102, N-(3-{[6,6-dimethyl-4-oxo-2-(pyridin-4-yl)-4,5,6,7-tetrahydro-1H-indol-3-yl]amino}phenyl)butanamide], the IC50 was determined as 0.954 µM.

`O=C(NCC(F)F)Nc1cc(-c2[nH]c3c(c2Nc2ccccc2)C(=O)CCC3)ccn1` [Example 387, 1-(2,2-difluoroethyl)-3-{4-[4-oxo-3-(phenylamino)-4,5,6,7-tetrahydro-1H-indol-2-yl]pyridin-2-yl}urea]: the IC50 amounted to 0.0635 µM.

For `CC(=O)O/N=C1\CC(C)(C)Cc2[nH]c(-c3ccncc3)c(Nc3ccccc3)c21` [Example 195, 1-({(E)-[6,6-dimethyl-3-(phenylamino)-2-(pyridin-4-yl)-1,5,6,7-tetrahydro-4H-indol-4-ylidene]amino}oxy)ethanone], the IC50 stood at 0.102 µM.

Regarding `CC1(C)CC(=O)c2c([nH]c(-c3ccncc3)c2Nc2cccc(C(F)(F)F)c2)C1` [Example 51, 6,6-dimethyl-2-(pyridin-4-yl)-3-{[3-(trifluoromethyl)phenyl]amino}-1,5,6,7-tetrahydro-4H-indol-4-one], the IC50 was 0.136 µM.

`Cc1cc(-c2[nH]c3c(c2Nc2ccccc2)C(=O)CC(C)(C)C3)ccn1` [Example 149, 6,6-dimethyl-2-(2-methylpyridin-4-yl)-3-(phenylamino)-1,5,6,7-tetrahydro-4H-indol-4-one]: the IC50 is 0.0941 µM.

As for `Cc1cc(-c2[nH]c3c(c2Nc2ccccc2)C(=O)CCC3)ccn1` [Example 143, 2-(2-methylpyridin-4-yl)-3-(phenylamino)-1,5,6,7-tetrahydro-4H-indol-4-one], the IC50 was 0.558 µM.

Consider `Cn1ccnc1COCC(=O)Nc1cc(-c2[nH]c3c(c2Nc2ccccc2)C(=O)CCC3)ccn1` [Example 493, 2-[(1-methyl-1H-imidazol-2-yl)methoxy]-N-{4-[4-oxo-3-(phenylamino)-4,5,6,7-tetrahydro-1H-indol-2-yl]pyridin-2-yl}acetamide], for which the IC50 is 0.00863 µM.

As for `CC1(C)CC(=O)c2c([nH]c(-c3ccnc(N)n3)c2Nc2ccccc2)C1` [Example 223, 2-(2-aminopyrimidin-4-yl)-6,6-dimethyl-3-(phenylamino)-1,5,6,7-tetrahydro-4H-indol-4-one], the IC50 came out at 0.0405 µM.

As for `CC1(C)CC(=O)c2c([nH]c(-c3ccncc3Br)c2Nc2ccccc2)C1` [Example 199, 2-(3-bromopyridin-4-yl)-6,6-dimethyl-3-(phenylamino)-1,5,6,7-tetrahydro-4H-indol-4-one], the 50% inhibitory concentration (IC50) was 0.012 µM.

As for `CS(=O)(=O)CC(=O)Nc1cc(-c2[nH]c3c(c2Nc2ccccc2)C(=O)CCC3)ccn1` [Example 248, 2-(methylsulfonyl)-N-{4-[4-oxo-3-(phenylamino)-4,5,6,7-tetrahydro-1H-indol-2-yl]pyridin-2-yl}acetamide], the IC50 was determined as 0.0282 µM.

As to `CNc1cc(-c2[nH]c3c(c2Nc2ccccc2)C(=O)CCC3)ccn1` [Example 358, 2-[2-(methylamino)pyridin-4-yl]-3-(phenylamino)-1,5,6,7-tetrahydro-4H-indol-4-one], the IC50 came out at 1.13 µM.

Consider `O=C(Nc1ccccn1)Nc1cc(-c2[nH]c3c(c2Nc2ccccc2)C(=O)CCC3)ccn1` [Example 386, 1-{4-[4-oxo-3-(phenylamino)-4,5,6,7-tetrahydro-1H-indol-2-yl]pyridin-2-yl}-3-pyridin-2-ylurea], for which the concentration for half-maximal inhibition (IC50) turned out to be 0.0203 µM.

With `CC1(C)CC1C(=O)Nc1cc(-c2[nH]c3c(c2Nc2ccccc2)C(=O)CCC3)ccn1` (stereo not drawn) [Example 232, 2,2-dimethyl-N-{4-[4-oxo-3-(phenylamino)-4,5,6,7-tetrahydro-1H-indol-2-yl]pyridin-2-yl}cyclopropanecarboxamide], the IC50 was 0.0347 µM.

For `CSCC(=O)Nc1cc(-c2[nH]c3c(c2Nc2ccccc2)C(=O)CCC3)ccn1` [Example 244, 2-(methylsulfanyl)-N-{4-[4-oxo-3-(phenylamino)-4,5,6,7-tetrahydro-1H-indol-2-yl]pyridin-2-yl}acetamide], the IC50 was 0.031 µM.

`CCNC(=O)Nc1cc(-c2[nH]c3c(c2Nc2ccccc2)C(=O)CCC3)ccn1` [Example 377, 1-ethyl-3-{4-[4-oxo-3-(phenylamino)-4,5,6,7-tetrahydro-1H-indol-2-yl]pyridin-2-yl}urea]: the IC50 was 0.0301 µM.

Regarding `CC1(C)CC(=O)c2c([nH]c(-c3ccncc3)c2Nc2cccc(OC(F)(F)F)c2)C1` [Example 107, 6,6-dimethyl-2-(pyridin-4-yl)-3-{[3-(trifluoromethoxy)phenyl]amino}-1,5,6,7-tetrahydro-4H-indol-4-one], the IC50 was determined as 0.164 µM.

For the compound `COc1ccc(OC)c(Nc2c(-c3ccncc3)[nH]c3c2C(=O)CC(C)(C)C3)c1` [Example 76, 3-[(2,5-dimethoxyphenyl)amino]-6,6-dimethyl-2-(pyridin-4-yl)-1,5,6,7-tetrahydro-4H-indol-4-one], the IC50 is 4.27 µM.

`CC(=O)Nc1cc(-c2[nH]c3c(c2Nc2ccccc2)C(=O)CC(C(C)C)C3)ccn1` (stereo not drawn) [Example 317, N-{4-[4-oxo-3-(phenylamino)-6-(propan-2-yl)-4,5,6,7-tetrahydro-1H-indol-2-yl]pyridin-2-yl}acetamide]: the IC50 amounted to 0.0109 µM.

`COc1cccc(Nc2c(-c3ccncc3)[nH]c3c2C(=O)CC(C)(C)C3)c1` [Example 52, 3-[(3-methoxyphenyl)amino]-6,6-dimethyl-2-(pyridin-4-yl)-1,5,6,7-tetrahydro-4H-indol-4-one]: the IC50 is 0.0998 µM.

With `CC(C)C1CC(=O)c2c([nH]c(-c3ccnc(NC(=O)C4CC4)c3)c2Nc2ccccc2)C1` (stereo not drawn) [Example 318, N-{4-[4-oxo-3-(phenylamino)-6-(propan-2-yl)-4,5,6,7-tetrahydro-1H-indol-2-yl]pyridin-2-yl}cyclopropanecarboxamide], the half-maximal inhibitory concentration (IC50) turned out to be 0.00971 µM.

Turning to `O=C(Nc1cc(-c2[nH]c3c(c2Nc2ccccc2)C(=O)CCC3)ccn1)c1ccns1` [Example 280, N-{4-[4-oxo-3-(phenylamino)-4,5,6,7-tetrahydro-1H-indol-2-yl]pyridin-2-yl}-1,2-thiazole-5-carboxamide], the IC50 came to 0.0103 µM.

As to `CC1(C)CC(=O)c2c([nH]c(-c3ccncc3)c2Nc2ccc(Br)cc2)C1` [Example 72, 3-[(4-bromophenyl)amino]-6,6-dimethyl-2-(pyridin-4-yl)-1,5,6,7-tetrahydro-4H-indol-4-one], the IC50 was determined as 0.0471 µM.

In the case of `CO/N=C1\CC(C)(C)Cc2[nH]c(-c3ccncc3)c(Nc3ccccc3)c21` [Example 471, 4-(methoxyimino)-6,6-dimethyl-N-phenyl-2-(pyridin-4-yl)-4,5,6,7-tetrahydro-1H-indol-3-amine], the half-inhibitory concentration (IC50) was 4.43 µM.
